Data reported in ChEMBL document CHEMBL1221361, “Substituted biaryl oxazoles, imidazoles, and thiazoles as sodium channel blockers” (Bioorg Med Chem Lett, 2010).
Values joined by “and” are separate entries in the source; they are usually repeats but may differ in a detail not shown here. Equal values may be shown once.

Key:
[1] = target: T1, Sodium channel protein type 9 subunit alpha (Homo sapiens, UniProt Q15858); assay: Binding affinity to human Nav1.7
Target sequence in this assay (Q15858 whole entry): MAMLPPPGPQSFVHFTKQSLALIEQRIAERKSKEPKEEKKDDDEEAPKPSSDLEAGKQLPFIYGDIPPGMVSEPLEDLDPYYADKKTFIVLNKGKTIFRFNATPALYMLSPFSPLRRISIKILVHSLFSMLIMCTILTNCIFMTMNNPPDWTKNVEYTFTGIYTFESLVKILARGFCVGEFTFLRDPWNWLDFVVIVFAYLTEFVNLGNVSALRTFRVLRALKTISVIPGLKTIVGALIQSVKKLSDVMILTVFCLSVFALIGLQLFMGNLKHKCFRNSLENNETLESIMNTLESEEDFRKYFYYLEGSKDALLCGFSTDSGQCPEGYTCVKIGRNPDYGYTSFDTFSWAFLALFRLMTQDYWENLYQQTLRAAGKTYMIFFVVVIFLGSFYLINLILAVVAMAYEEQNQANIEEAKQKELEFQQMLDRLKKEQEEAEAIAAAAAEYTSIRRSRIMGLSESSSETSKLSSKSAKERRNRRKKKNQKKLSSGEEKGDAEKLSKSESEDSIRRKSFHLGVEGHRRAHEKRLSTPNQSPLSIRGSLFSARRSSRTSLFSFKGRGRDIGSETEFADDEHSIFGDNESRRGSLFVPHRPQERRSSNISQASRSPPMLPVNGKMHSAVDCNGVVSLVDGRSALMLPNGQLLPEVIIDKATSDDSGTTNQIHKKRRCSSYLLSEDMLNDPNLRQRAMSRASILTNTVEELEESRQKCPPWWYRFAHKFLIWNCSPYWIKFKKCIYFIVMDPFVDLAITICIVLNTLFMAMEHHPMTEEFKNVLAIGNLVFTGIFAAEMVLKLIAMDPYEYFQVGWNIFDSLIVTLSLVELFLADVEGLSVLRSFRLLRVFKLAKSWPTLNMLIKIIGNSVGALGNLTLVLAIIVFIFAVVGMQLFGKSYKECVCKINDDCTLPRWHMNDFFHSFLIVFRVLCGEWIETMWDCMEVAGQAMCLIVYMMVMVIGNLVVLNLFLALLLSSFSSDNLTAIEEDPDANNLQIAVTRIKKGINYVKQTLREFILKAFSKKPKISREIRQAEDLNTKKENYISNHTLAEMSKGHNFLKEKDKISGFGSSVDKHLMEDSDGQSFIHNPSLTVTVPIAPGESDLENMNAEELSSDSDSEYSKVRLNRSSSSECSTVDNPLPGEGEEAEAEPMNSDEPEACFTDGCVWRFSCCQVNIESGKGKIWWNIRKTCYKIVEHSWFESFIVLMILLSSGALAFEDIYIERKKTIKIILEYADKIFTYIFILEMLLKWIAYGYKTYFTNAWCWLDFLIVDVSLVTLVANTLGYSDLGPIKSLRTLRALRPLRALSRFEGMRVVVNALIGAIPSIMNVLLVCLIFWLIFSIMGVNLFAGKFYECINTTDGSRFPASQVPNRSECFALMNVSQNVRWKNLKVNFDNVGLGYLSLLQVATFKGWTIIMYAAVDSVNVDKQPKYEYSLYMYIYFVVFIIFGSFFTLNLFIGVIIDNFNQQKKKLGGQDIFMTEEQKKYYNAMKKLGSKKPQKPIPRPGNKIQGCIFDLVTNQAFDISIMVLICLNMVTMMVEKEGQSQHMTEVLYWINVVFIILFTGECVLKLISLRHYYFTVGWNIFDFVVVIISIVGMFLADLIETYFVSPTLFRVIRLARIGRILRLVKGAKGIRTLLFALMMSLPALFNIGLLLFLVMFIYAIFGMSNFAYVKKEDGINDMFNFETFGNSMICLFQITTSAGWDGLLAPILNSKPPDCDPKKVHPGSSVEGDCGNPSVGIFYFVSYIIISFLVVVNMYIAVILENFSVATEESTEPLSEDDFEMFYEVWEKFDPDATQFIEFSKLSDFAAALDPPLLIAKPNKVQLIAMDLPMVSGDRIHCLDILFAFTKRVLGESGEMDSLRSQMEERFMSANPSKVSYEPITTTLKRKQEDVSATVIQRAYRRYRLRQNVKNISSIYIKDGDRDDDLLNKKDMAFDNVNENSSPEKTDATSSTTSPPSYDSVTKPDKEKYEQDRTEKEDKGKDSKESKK

[2] = target: T1, Sodium channel protein type 9 subunit alpha; assay: Blockade of human Nav1.7 at 1 uM by voltage ion probe reader based FRET assay
Target sequence in this assay (Q15858 whole entry, looked up): as the sequence (Q15858 whole entry) above

[3] = target: T1, Sodium channel protein type 9 subunit alpha; assay: Blockade of human Nav1.7 by voltage ion probe reader based FRET assay
Target sequence in this assay (Q15858 whole entry): as above

[4] = Clearance in rat plasma at 1 to 3 mg/kg; assay type: ADME, organism-based; set-up: dose 1-3 mg/kg
Cytochrome P450 2C9 = Cytochrome P450 2C9 (Homo sapiens, UniProt P11712); assay: Inhibition of CYP2C9; assay type: ADME
[5] = Half life in rat plasma at 1 to 3 mg/kg; assay type: ADME, organism-based; set-up: dose 1-3 mg/kg
hERG (KCNH2) = hERG (KCNH2) (Homo sapiens, UniProt Q12809); assay: Displacement of radiolabeled MK-0499 from human ERG at 1 uM; conditions: probe radiolabeled MK-0499
[6] = target: T1, Sodium channel protein type 9 subunit alpha; assay: Blockade of human Nav1.7 by electrophysiology assay
Target sequence in this assay (Q15858 whole entry): as above

Cytochrome P450 2D6 = Cytochrome P450 2D6 (Homo sapiens, UniProt P10635); assay: Inhibition of CYP2D6; assay type: ADME
[7] = Oral bioavailability in rat at 1 to 3 mg/kg; assay type: ADME, organism-based; conditions: in vivo
Cytochrome P450 3A4 = Cytochrome P450 3A4 (Homo sapiens, UniProt P08684); assay: Inhibition of CYP3A4; assay type: ADME
[8] = Half life in rat plasma at 1 to 2 mg/kg; assay type: ADME, organism-based; set-up: dose 1-2 mg/kg
[9] = Oral bioavailability in rat at 1 to 2 mg/kg; assay type: ADME, organism-based; conditions: in vivo
[10] = Clearance in rat plasma at 1 to 2 mg/kg; assay type: ADME, organism-based; set-up: dose 1-2 mg/kg
[11] = Metabolic stability in dog hepatocytes assessed as compound remaining after 2 hrs; assay type: ADME, cell-based, Canis lupus familiaris, Hepatocyte; conditions: read-out: INH
Rattus norvegicus = assay: Analgesic activity rat spinal nerve ligation Chung model assessed as reversal of mechanical allodynia at 10 mg/kg, po administered 14 days after surgery measured 2 hrs after postdose; assay type: functional
[12] = Metabolic stability in dog liver S9 microsomes assessed as compound remaining after 1 hr; assay type: ADME, Canis lupus familiaris, Microsome; conditions: read-out: INH
[13] = Metabolic stability in rat liver S9 microsomes assessed as compound remaining after 1 hr; assay type: ADME, Microsome; conditions: read-out: INH
[14] = Metabolic stability in human liver S9 microsomes assessed as compound remaining after 1 hr; assay type: ADME, Microsome; conditions: read-out: INH

Chain of Cytochrome P450 2C9 (P11712 whole entry): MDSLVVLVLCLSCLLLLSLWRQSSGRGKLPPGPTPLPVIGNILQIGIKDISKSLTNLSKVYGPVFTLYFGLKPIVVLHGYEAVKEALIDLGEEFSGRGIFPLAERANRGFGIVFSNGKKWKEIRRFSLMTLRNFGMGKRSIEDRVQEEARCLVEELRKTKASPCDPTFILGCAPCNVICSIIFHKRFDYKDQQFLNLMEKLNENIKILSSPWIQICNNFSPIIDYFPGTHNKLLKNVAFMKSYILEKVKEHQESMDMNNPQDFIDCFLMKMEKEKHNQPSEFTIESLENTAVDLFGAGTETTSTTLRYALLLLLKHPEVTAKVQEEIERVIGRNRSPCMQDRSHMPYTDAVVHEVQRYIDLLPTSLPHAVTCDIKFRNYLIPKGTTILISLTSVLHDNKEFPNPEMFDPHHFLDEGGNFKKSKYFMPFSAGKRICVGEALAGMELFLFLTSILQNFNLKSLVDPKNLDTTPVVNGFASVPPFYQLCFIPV
Chain of Cytochrome P450 3A4 (P08684 whole entry): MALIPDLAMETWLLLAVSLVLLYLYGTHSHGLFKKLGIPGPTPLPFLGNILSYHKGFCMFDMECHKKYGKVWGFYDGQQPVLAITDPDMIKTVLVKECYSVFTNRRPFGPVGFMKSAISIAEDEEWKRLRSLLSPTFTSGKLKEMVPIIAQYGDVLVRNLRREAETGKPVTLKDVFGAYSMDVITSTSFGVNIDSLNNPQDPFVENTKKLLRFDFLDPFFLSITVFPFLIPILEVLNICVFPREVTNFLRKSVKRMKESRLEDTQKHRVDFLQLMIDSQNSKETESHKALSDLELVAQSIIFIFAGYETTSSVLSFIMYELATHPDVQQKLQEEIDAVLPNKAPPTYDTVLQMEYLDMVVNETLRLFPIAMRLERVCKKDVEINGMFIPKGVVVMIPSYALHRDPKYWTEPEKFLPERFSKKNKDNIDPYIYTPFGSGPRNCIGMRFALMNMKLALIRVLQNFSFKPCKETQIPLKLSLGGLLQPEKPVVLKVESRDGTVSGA
Chain of Cytochrome P450 2D6 (P10635 whole entry): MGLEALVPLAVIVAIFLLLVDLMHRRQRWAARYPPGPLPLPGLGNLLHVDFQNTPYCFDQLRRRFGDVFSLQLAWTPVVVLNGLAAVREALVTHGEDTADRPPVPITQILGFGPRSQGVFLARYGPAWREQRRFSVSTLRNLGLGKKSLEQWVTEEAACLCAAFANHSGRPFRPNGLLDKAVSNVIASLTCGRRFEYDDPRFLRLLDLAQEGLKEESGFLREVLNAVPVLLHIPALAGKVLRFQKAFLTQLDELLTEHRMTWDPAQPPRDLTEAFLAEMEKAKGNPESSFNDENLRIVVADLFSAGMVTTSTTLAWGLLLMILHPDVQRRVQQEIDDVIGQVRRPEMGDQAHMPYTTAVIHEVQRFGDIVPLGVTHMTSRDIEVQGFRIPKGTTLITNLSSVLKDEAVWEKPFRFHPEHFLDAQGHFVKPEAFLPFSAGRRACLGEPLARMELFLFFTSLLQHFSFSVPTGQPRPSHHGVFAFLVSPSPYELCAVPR
Chain of hERG (KCNH2) (Q12809 whole entry): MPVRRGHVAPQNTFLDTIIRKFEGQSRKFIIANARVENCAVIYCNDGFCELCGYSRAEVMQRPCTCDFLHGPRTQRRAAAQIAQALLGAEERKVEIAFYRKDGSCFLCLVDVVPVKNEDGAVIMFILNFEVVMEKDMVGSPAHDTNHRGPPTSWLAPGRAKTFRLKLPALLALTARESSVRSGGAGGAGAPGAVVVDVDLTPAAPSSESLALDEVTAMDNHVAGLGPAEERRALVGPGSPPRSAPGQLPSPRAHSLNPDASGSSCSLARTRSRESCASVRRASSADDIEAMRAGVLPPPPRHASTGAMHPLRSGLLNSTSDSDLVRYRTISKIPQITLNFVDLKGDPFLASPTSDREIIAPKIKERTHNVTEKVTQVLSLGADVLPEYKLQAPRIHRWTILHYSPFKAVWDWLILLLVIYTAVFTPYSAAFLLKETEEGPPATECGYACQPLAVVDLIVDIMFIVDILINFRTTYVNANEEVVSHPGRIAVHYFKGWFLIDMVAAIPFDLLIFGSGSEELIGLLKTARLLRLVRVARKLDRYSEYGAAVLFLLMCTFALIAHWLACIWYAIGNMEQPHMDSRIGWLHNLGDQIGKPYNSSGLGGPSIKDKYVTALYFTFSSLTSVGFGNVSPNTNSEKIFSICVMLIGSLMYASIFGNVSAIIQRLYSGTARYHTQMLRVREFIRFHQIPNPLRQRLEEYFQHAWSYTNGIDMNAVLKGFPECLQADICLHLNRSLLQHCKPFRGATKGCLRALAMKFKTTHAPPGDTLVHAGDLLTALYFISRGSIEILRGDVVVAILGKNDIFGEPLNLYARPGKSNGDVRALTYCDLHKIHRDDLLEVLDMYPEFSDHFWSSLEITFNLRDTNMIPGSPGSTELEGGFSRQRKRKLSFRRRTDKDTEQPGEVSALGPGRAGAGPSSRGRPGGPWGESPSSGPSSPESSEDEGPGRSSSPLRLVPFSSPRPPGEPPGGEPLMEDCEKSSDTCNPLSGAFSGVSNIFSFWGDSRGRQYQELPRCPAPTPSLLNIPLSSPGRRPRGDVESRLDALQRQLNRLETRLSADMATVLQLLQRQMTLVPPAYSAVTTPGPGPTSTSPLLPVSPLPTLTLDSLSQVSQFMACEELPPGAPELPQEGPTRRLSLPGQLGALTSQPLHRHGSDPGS

O=C1NC(=O)/C(=C/c2cccc(-c3ccccc3OC(F)(F)F)c2)S1
Ki [1]: 0.02 µM

N#CCc1nc(-c2cccc(-c3ccccc3OC(F)(F)F)c2)cs1
inhibition [2]: 8%

Cc1nc(-c2cccc(-c3ccccc3OC(F)(F)F)c2)co1
IC50 [3]: 2.14 µM

Nc1nc(-c2cccc(-c3ccccc3OC(F)(F)F)c2)cs1
inhibition [2]: 84%

CN(C)C(=O)Nc1nc(-c2cccc(-c3ccccc3OC(F)(F)F)c2)cs1
inhibition [2]: 6.6%

NC(=O)Cc1nc(-c2cccc(-c3ccccc3OC(F)(F)F)c2)cs1
IC50 [3]: 0.62 µM

CS(=O)(=O)Nc1nc(-c2cccc(-c3ccccc3OC(F)(F)F)c2)cs1
inhibition [2]: 65%

Nc1nc(-c2cccc(-c3ccccc3OC(F)(F)F)c2)co1
inhibition [2]: 37%

FC(F)(F)Oc1ccccc1-c1cccc(-c2csc(-c3ncco3)n2)c1
inhibition [2]: 27%

FC(F)(F)Oc1ccccc1-c1cccc(-c2csc(-c3ncc[nH]3)n2)c1
IC50 [3]: 0.95 µM

NC(=O)c1nc(-c2cccc(-c3ccccc3C(F)(F)F)c2)c[nH]1
clearance [4]: 23 mL/min/kg | inhibition [2]: 55% | IC50 (Cytochrome P450 2C9): > 40 µM | half-life [5]: 30 min | inhibition at 1 µM (hERG (KCNH2)): 25% | IC50 [6]: 0.27 µM | IC50 (Cytochrome P450 2D6): > 40 µM | bioavailability [7]: 46% | IC50 (Cytochrome P450 3A4): > 40 µM

NC(=O)N/N=C/c1ccc(Oc2ccc(F)cc2)cc1
Ki [1]: 0.36 µM

Cn1cc(-c2ccc(F)c(-c3ccccc3OC(F)(F)F)c2)nc1C(N)=O
IC50 [3]: 0.49 µM

FC(F)(F)c1ccccc1-c1cccc(-c2c[nH]cn2)c1
half-life [8]: 37.8 min | bioavailability [9]: 71% | IC50 (Cytochrome P450 2C9): < 0.05 µM | clearance [10]: 32 mL/min/kg | inhibition at 1 µM (hERG (KCNH2)): 75% | IC50 [6]: 0.15 µM | IC50 [3]: 2.1 µM | IC50 (Cytochrome P450 2D6): < 0.05 µM | IC50 (Cytochrome P450 3A4): < 0.05 µM

FC(F)(F)Oc1ccccc1-c1cccc(-c2cscn2)c1
IC50 [3]: 2.16 µM

OCc1nc(-c2cccc(-c3ccccc3OC(F)(F)F)c2)cs1
IC50 [3]: 1.8 µM

Cc1nc(-c2cccc(-c3ccccc3OC(F)(F)F)c2)cs1
IC50 [3]: 2.99 µM

Cc1sc(C(N)=O)nc1-c1cccc(-c2ccccc2OC(F)(F)F)c1
IC50 [3]: 0.43 µM

FC(F)(F)Oc1ccccc1-c1cccc(-c2c[nH]cn2)c1
inhibition [2]: 14%

FC(F)(F)Oc1ccccc1-c1cccc(-c2csc(-c3cnccn3)n2)c1
IC50 [3]: 1.26 µM

NC(=O)c1nc(-c2cccc(-c3ccccc3OC(F)(F)F)c2)co1
IC50 [3]: 2.36 µM

CC(=O)Nc1nc(-c2cccc(-c3ccccc3OC(F)(F)F)c2)cs1
inhibition [2]: 5%

NC(=O)c1nc(-c2cccc(-c3ccccc3OC(F)(F)F)c2)cs1
half-life [8]: 79.8 min | remaining at 2 h [11]: < 5% | inhibition in vivo at 10 mg/kg (Rattus norvegicus): 61% | bioavailability [9]: 20% | IC50 (Cytochrome P450 2C9): 16 µM | clearance [10]: 52 mL/min/kg | remaining at 1 h [12]: 10% | inhibition at 1 µM (hERG (KCNH2)): 0.5% | remaining at 1 h [13]: 68% | remaining at 1 h [14]: 47% | IC50 [6]: 0.015 µM | IC50 [3]: 230 nM (2×) and 228 nM | IC50 (Cytochrome P450 2D6): 48 µM | IC50 (Cytochrome P450 3A4): 18 µM

FC(F)(F)Oc1ccccc1-c1cccc(-c2cocn2)c1
IC50 [3]: 1.94 µM

FC(F)(F)c1ccccc1-c1cccc(-c2cocn2)c1
IC50 [3]: 5.31 µM

NC(=O)c1csc(-c2cccc(-c3ccccc3OC(F)(F)F)c2)n1
clearance [4]: 112 mL/min/kg | IC50 (Cytochrome P450 2C9): 8.79 µM | half-life [5]: 44.4 min | inhibition at 1 µM (hERG (KCNH2)): 55% | IC50 [6]: 0.05 µM | IC50 [3]: 0.26 µM | IC50 (Cytochrome P450 2D6): > 50 µM | bioavailability [7]: 22% | IC50 (Cytochrome P450 3A4): > 50 µM

FC(F)(F)Oc1ccccc1-c1cccc(-c2csc(-c3ncccn3)n2)c1
inhibition [2]: 6.3%

NC(=O)c1nc(-c2cccc(-c3ccccc3C(F)(F)F)c2)c(Cl)[nH]1
IC50 [3]: 2.77 µM

Cn1cc(-c2cccc(-c3ccccc3C(F)(F)F)c2)nc1C(N)=O
IC50 [3]: 1.25 µM

Cn1cc(-c2cc(-c3ccccc3OC(F)(F)F)ccc2F)nc1C(N)=O
inhibition [2]: 15%

NC(=O)c1nc(-c2ccc(-c3ccccc3OC(F)(F)F)cc2)cs1
inhibition [2]: 6.1%

FC(F)(F)Oc1ccccc1-c1cccc(-c2csc(-c3ccccn3)n2)c1
inhibition [2]: 21%

CCOC(=O)c1nc(-c2cccc(-c3ccccc3OC(F)(F)F)c2)c(C)s1
inhibition [2]: 8%

CN(C)C(=O)c1nc(-c2cccc(-c3ccccc3OC(F)(F)F)c2)cs1
IC50 [3]: 1.37 µM
